Experimental data as given in ChEMBL document CHEMBL2412981, “Syntheses of procyanidin B2 and B3 gallate derivatives using equimolar condensation mediated by Yb(OTf)3 and their antitumor activities” (Bioorg Med Chem Lett, 2013).
The source made the active and inactive calls. The rule behind the calls is not given here.

These molecules were tested on PC-3 (assay: Antiproliferative activity against human PC3 cells at 10 to 100 uM after 48 hrs by hemocytometric cell counting method).
Assay type: functional, cell-based
`O=C(O[C@@H]1Cc2c(O)cc(O)c([C@H]3c4c(O)cc(O)cc4O[C@H](c4ccc(O)c(O)c4)[C@@H]3O)c2O[C@@H]1c1ccc(O)c(O)c1)c1cc(O)c(O)c(O)c1` was tested, and the inhibition was “Active”. With `O=C(O[C@@H]1[C@@H](c2c(O)cc(O)c3c2O[C@H](c2ccc(O)c(O)c2)[C@H](OC(=O)c2cc(O)c(O)c(O)c2)C3)c2c(O)cc(O)cc2O[C@@H]1c1ccc(O)c(O)c1)c1cc(O)c(O)c(O)c1` the inhibition was “Active”. In the case of `Oc1cc(O)c2c(c1)O[C@H](c1cc(O)c(O)c(O)c1)[C@@H](O)[C@@H]2c1c(O)cc(O)c2c1O[C@H](c1cc(O)c(O)c(O)c1)[C@@H](O)C2`, the inhibition is reported as “Active”. For `O=C(O[C@H]1[C@H](c2c(O)cc(O)c3c2O[C@H](c2ccc(O)c(O)c2)[C@@H](OC(=O)c2cc(O)c(O)c(O)c2)C3)c2c(O)cc(O)cc2O[C@@H]1c1ccc(O)c(O)c1)c1cc(O)c(O)c(O)c1`, the inhibition was “Active”. `O=C(O[C@@H]1Cc2c(O)cc(O)cc2O[C@@H]1c1cc(O)c(O)c(O)c1)c1cc(O)c(O)c(O)c1` was tested, and the inhibition was “Active”. For `O=C(O[C@H]1[C@H](c2c(O)cc(O)c3c2O[C@H](c2ccc(O)c(O)c2)[C@@H](O)C3)c2c(O)cc(O)cc2O[C@@H]1c1ccc(O)c(O)c1)c1cc(O)c(O)c(O)c1`, the inhibition was “Active”. For `O=C(O[C@H]1Cc2c(O)cc(O)c([C@@H]3c4c(O)cc(O)cc4O[C@H](c4ccc(O)c(O)c4)[C@H]3O)c2O[C@@H]1c1ccc(O)c(O)c1)c1cc(O)c(O)c(O)c1`, the inhibition was “Active”. In the case of `O=C(O[C@@H]1[C@@H](c2c(O)cc(O)c3c2O[C@H](c2ccc(O)c(O)c2)[C@H](O)C3)c2c(O)cc(O)cc2O[C@@H]1c1ccc(O)c(O)c1)c1cc(O)c(O)c(O)c1`, the inhibition is reported as “Active”.
